Experimental data published in patent US20100278853A1, “C[…] V3 LOOP PEPTIDES AS NOVEL IMMUNOGENS AND RECEPTOR ANTAGONISTS” (YEDA RESEARCH AND DEVELOPMENT CO., LTD., priority 2003, published 2010).

Legend:
447Fv = assay: Fluorescence quenching of 447Fv upon titration with the peptide; parameters: species or system human; details: read-out: dissociation constant / binding affinity for 447Fv
Method: The R5A-M1 peptide binds 447Fv with a dissociation constant of 10 nM as determined by fluorescence quenching of 447F upon titration with the peptide, so is within one order of magnitude of the binding affinity of the V3 peptide (˜1 nM).

447 = assay: Binding affinity of V3 peptides to mAb 447 (method not described); parameters: species or system human; details: relative to affinity of 447 for V3MN peptide
[1] = test system: R5 and X4 tropic virus strains; details: against both R5 and X4 tropic virus strains; cited from earlier work

Substance: CRKSIHC—GPGRCFYTTGC [R5A-M1]
- Kd (447Fv): 10 nM

Substance: TRKSIRIQRGPGRAFVTIGK [V3IIIB, 310-329 gp120IIIB V3 loop peptide expressed in E. coli]
- association constant with 447 compared with the corresponding V3MN peptide 447: one order of magnitude lower

Substance: α-defensin: low molecular weight granulocyte protein, pdb code 1dfn
- anti-HIV activity [1]: anti-HIV activity
